Common to all, as to format: cell-based
For one assay, the system named is MOLT-4 cells. In words: MOLT-4 cell viability, CTG assay. The following applies: Homo sapiens, MOLT-4, 48 h. The essentials: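 Viability read as total ATP luminescence (CTG) after 48 h compound treatment, 11 points at 5-fold spacing in triplicate, cells in RPMI 1640/10% FBS. IC50 is the concentration halving signal relative to control, four-parameter fit, averaged over at least 2 experiments.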

Assay [1] relates to EBC-1 lung cancer cell line. Kind of assay: EBC-1 cell proliferation, CellTiter-Glo assay. The following applies: Ebc-1 cell viability, CTG assay, 5 days of treatment, read-out: CTG 5 day Ebc1 GI50. The protocol:
(§1) The ability of the BCL-xL degrader low molecular weight compounds to inhibit cell proliferation and survival was assessed using the Promega CellTiter-Glo® proliferation assay on the EBC-1 lung cancer cell line (RCB1965, obtained from RIKEN.) The cells were cultured in media that is optimal for their growth at 5% CO2, 37° C. in a tissue culture incubator. Prior to seeding for the proliferation assay, the cells were split at least 2 days before the assay to ensure optimal growth density. On the day of seeding, cells were lifted off tissue culture flasks using 0.25% trypsin. Cell viability and cell density were determined using a cell counter (Vi-Cell XR Cell Viability Analyzer, Beckman Coulter). Cells with higher than 85% viability were seeded in white clear bottom 384-well plates (Greiner cat #781098) at a density of 1000 cells per well in 50 μL of standard growth media. Plates were incubated at 37° C. overnight in a tissue culture incubator.
The BCL-xL degrader low molecular weight compounds were prepared to desired concentrations. A series of 10 dilutions were made for each prepared compound. The prepared compounds were then added to the cells resulting in final concentrations of 0.508 nM-10 μM. An acoustic transfer device (Echo555, Beckman Coulter) was used to add the compounds to the cells. Each treatment was tested in triplicate assay plates. Plates were incubated at 37° C. overnight or for 5 days in a tissue culture incubator. The ability of the compounds to inhibit cell proliferation and survival was assessed using the Promega CellTiter-Glo® proliferation assay. Plates were incubated at room temperature for 20 minutes to stabilize luminescent signals prior to reading using a multimode plate reader (PHERAstar FSX Microplate Reader, BMG Labtech).
To evaluate the effect of the compound treatments, luminescent counts of untreated cells were taken the day after seeding (Day 0 readings), and after 5 days of treatment (Day 5 readings). The Day 5 readings of the untreated cells were compared to the Day 0 readings. Assays with at least one cell doubling during the incubation period were considered valid. To evaluate the effect of the drug treatments, luminescent counts from wells containing untreated cells (100% viability) were used to normalize treated samples. The concentrations of treatment required to inhibit 50% of cell growth or survival ([…]) were calculated using a four parameter logistic regression equation.

The target in a further assay is T1, HiBiT-tagged BCL-xL (Homo sapiens, UniProt Q07817).
T1 construct: expressed in transfected cells; host or cells: NCI-H1650 (ATCC No. CRL-5883), engineered HiBiT cell line
In words: NCI-H1650 BCL-xL protein levels, Nano-Glo HiBiT Lytic Detection. The following applies: NCI-H1650 expressing HiBiT-tagged BCL-xL, overnight incubation, read-out: Bcl-xl HIBIT NCIH1650 DC50. The protocol: as §1, with “degrade BCL-xL protein” for “inhibit cell proliferation and survival”, “Nano-Glo® HiBiT Lytic Detection System. The NCI-H1650 (ATCC No. CRL-5883) was engineered to express HiBiT-tagged BCL-xL. The NCI-H1650 HiBiT” for “CellTiter-Glo® proliferation assay on the EBC-1 lung cancer”, “was” for “(RCB1965, obtained from RIKEN.) The cells were”, “protein level” for “proliferation”, “5000” for “1000”, “30” for “50”
The BCL-xL degrader low molecular weight compounds were prepared to desired concentrations. A series of 10 dilutions were made for each prepared compound. The prepared compounds were then added to the cells resulting in final concentrations of 0.508 nM-10 μM. An acoustic transfer device (Echo555, Beckman Coulter) was used to add the compounds to the cells. Each treatment was tested in triplicate assay plates. Plates were incubated at 37° C. overnight in a tissue culture incubator.
BCL-xL degradation was assessed through the addition of 30 μL of Nano-Glo® HiBiT Lytic Reagent (Promega, cat #N3040), a reagent which lyses cells and contains a furimazine substrate and the large subunit (LgBiT) used in NanoLuc® Binary Technology. The LgBiT subunit having high affinity to a HiBiT-tagged protein will bind HiBiT, if present, resulting in complex formation of a luminescent NanoBiT® enzyme. This reaction will emit a luminescent signal proportional to the amount of HiBiT-tagged BCL-xL present in the cell lysate. Plates were incubated at room temperature for 20 minutes to stabilize luminescent signals prior to reading using a luminescence reader (PHERAstar FSX Microplate Reader, BMG Labtech).
To evaluate the effect of the drug treatments, luminescent counts from wells containing untreated cells (100% HiBiT-tagged BCL-xL) were used to normalize treated samples. The concentrations of treatment required to inhibit 50% were calculated using a four parameter logistic regression equation.
In general terms: HiBiT is a short tag that completes a luciferase, so light tracks the accessible tagged protein.

Like-named read-outs stand apart in the source and are kept apart here.

T1 sequence (Q07817 whole entry): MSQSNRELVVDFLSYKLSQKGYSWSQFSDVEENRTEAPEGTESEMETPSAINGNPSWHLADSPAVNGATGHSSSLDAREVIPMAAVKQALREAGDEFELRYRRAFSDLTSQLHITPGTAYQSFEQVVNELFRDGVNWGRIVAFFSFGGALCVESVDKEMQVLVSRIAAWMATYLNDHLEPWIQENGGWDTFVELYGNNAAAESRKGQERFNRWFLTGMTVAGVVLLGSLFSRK

Regarding `Cc1ncsc1-c1ccc([C@H](C)NC(=O)[C@@H]2C[C@@H](O)CN2C(=O)[C@@H](NC(=O)CCCCCCCCCCCCCN(C)CCOC23CC4(C)CC(C)(CC(Cn5ncc(-c6ccc(N7CCCc8c7nnc(Nc7nc9ccccc9s7)c8C)nc6CO)c5C)(C4)C2)C3)C(C)(C)C)cc1` [Example 155, (2S,4R)-1-[(2S)-2-[14-[2-[[3-[[4-[6-[3-(1,3-benzothiazol-2-ylamino)-4-methyl-6,7-dihydro-5H-pyrido[2,3-c]pyridazin-8-yl]-2-(hydroxymethyl)-3-pyridyl]-5-methyl-pyrazol-1-yl]methyl]-5,7-dimethyl-1-adamantyl]oxy]ethyl-methyl-amino]tetradecanoylamino]-3,3-dimethyl-butanoyl]-4-hydroxy-N-[(1S)-1-[4-(4-methylthiazol-5-yl)phenyl]ethyl]pyrrolidine-2-carboxamide], in the assay with MOLT-4 cells, the half-inhibitory concentration (IC50) (commonly the concentration that inhibits the measured activity by half) was 22.1 nM. Also, the GI50 (usually the concentration at which growth is held to half of that of the control) in assay [1] (Homo sapiens, 120 h) is 431 nM. Further, the DC50 at HiBiT-tagged BCL-xL is more than 1670 nM.

Consider `Cc1ncsc1-c1ccc([C@H](C)NC(=O)[C@@H]2C[C@@H](O)CN2C(=O)[C@@H](NC(=O)CCOCCOCCOCCN(C)C(=O)c2nc(N3CCCc4c3nnc(Nc3nc5ccccc5s3)c4C)ccc2-c2cnn(CC34CC5(C)CC(C)(C3)CC(OCCN3CCCC3)(C5)C4)c2C)C(C)(C)C)cc1` [Example 160, 6-(3-(benzo[d]thiazol-2-ylamino)-4-methyl-6,7-dihydropyrido[2,3-c]pyridazin-8(5H)-yl)-3-(1-(((1r,3R,5S,7s)-3,5-dimethyl-7-(2-(pyrrolidin-1-yl)ethoxy)adamantan-1-yl)methyl)-5-methyl-1H-pyrazol-4-yl)-N—((S)-14-((2S,4R)-4-hydroxy-2-(((S)-1-(4-(4-methylthiazol-5-yl)phenyl)ethyl)carbamoyl)pyrrolidine-1-carbonyl)-15,15-dimethyl-12-oxo-3,6,9-trioxa-13-azahexadecyl)-N-methylpicolinamide], for which the GI50 in assay [1] (Homo sapiens, 120 h) amounted to 58 nM. The DC50 at HiBiT-tagged BCL-xL came out at 2 nM.

For the compound `Cc1ncsc1-c1ccc([C@H](C)NC(=O)[C@@H]2C[C@@H](O)CN2C(=O)[C@@H](NC(=O)[C@H]2CC[C@H](NC(=O)c3nc(N4CCCc5c4nnc(Nc4nc6ccccc6s4)c5C)ccc3-c3cnn(CC45CC6(C)CC(C)(C4)CC(OCCN4CCCC4)(C6)C5)c3C)CC2)C(C)(C)C)cc1` [Example 162, 6-(3-(benzo[d]thiazol-2-ylamino)-4-methyl-6,7-dihydropyrido[2,3-c]pyridazin-8(5H)-yl)-3-(1-(((1r,3R,5S,7s)-3,5-dimethyl-7-(2-(pyrrolidin-1-yl)ethoxy)adamantan-1-yl)methyl)-5-methyl-1H-pyrazol-4-yl)-N-((1S,4R)-4-(((S)-1-((2S,4R)-4-hydroxy-2-(((S)-1-(4-(4-methylthiazol-5-yl)phenyl)ethyl)carbamoyl)pyrrolidin-1-yl)-3,3-dimethyl-1-oxobutan-2-yl)carbamoyl)cyclohexyl)picolinamide], the GI50 in assay [1] (Homo sapiens, 120 h) turned out to be 222 nM. Besides, the DC50 at HiBiT-tagged BCL-xL is more than 1670 nM.

For `Cc1ncsc1-c1ccc([C@H](C)NC(=O)[C@@H]2C[C@@H](O)CN2C(=O)[C@@H](NC(=O)CCOCCOCCNC(=O)c2nc(N3CCCc4c3nnc(Nc3nc5ccccc5s3)c4C)ccc2-c2cnn(CC34CC5(OCCN6CCCC6)C[C@](C)(C3)C[C@](C)(C4)C5)c2C)C(C)(C)C)cc1` [Example 158, 6-(3-(benzo[d]thiazol-2-ylamino)-4-methyl-6,7-dihydropyrido[2,3-c]pyridazin-8(5H)-yl)-3-(1-(((1r,3R,5S,7s)-3,5-dimethyl-7-(2-(pyrrolidin-1-yl)ethoxy)adamantan-1-yl)methyl)-5-methyl-1H-pyrazol-4-yl)-N-(2-(2-(3-(((S)-1-((2S,4R)-4-hydroxy-2-(((S)-1-(4-(4-methylthiazol-5-yl)phenyl)ethyl)carbamoyl)pyrrolidin-1-yl)-3,3-dimethyl-1-oxobutan-2-yl)amino)-3-oxopropoxy)ethoxy)ethyl)picolinamide], in assay [1], the GI50 was 10 nM. For the same compound, on HiBiT-tagged BCL-xL, the DC50 was more than 1670 nM.

`Cc1ncsc1-c1ccc([C@H](C)NC(=O)[C@@H]2C[C@@H](O)CN2C(=O)[C@@H](NC(=O)COC2CCN(C(=O)c3nc(N4CCCc5c4nnc(Nc4nc6ccccc6s4)c5C)ccc3-c3cnn(CC45CC6(C)CC(C)(C4)CC(OCCN4CCCC4)(C6)C5)c3C)CC2)C(C)(C)C)cc1` [Example 166, (2S,4R)-1-((S)-2-(2-((1-(6-(3-(benzo[d]thiazol-2-ylamino)-4-methyl-6,7-dihydropyrido[2,3-c]pyridazin-8(5H)-yl)-3-(1-(((1r,3R,5S,7s)-3,5-dimethyl-7-(2-(pyrrolidin-1-yl)ethoxy)adamantan-1-yl)methyl)-5-methyl-1H-pyrazol-4-yl)picolinoyl)piperidin-4-yl)oxy)acetamido)-3,3-dimethylbutanoyl)-4-hydroxy-N—((S)-1-(4-(4-methylthiazol-5-yl)phenyl)ethyl)pyrrolidine-2-carboxamide]: in assay [1] (Homo sapiens, 120 h), the GI50 is 68 nM. Moreover, on HiBiT-tagged BCL-xL, the DC50 came out at 1 nM.

Take `Cc1ncsc1-c1ccc([C@H](C)NC(=O)[C@@H]2C[C@@H](O)CN2C(=O)[C@@H](NC(=O)[C@@H]2CCCN(C(=O)c3nc(N4CCCc5c4nnc(Nc4nc6ccccc6s4)c5C)ccc3-c3cnn(CC45CC6(C)CC(C)(C4)CC(OCCN4CCCC4)(C6)C5)c3C)C2)C(C)(C)C)cc1` [Example 169, (R)-1-(6-(3-(benzo[d]thiazol-2-ylamino)-4-methyl-6,7-dihydropyrido[2,3-c]pyridazin-8(5H)-yl)-3-(1-(((1r,3R,5S,7S)-3,5-dimethyl-7-(2-(pyrrolidin-1-yl)ethoxy)adamantan-1-yl)methyl)-5-methyl-1H-pyrazol-4-yl)picolinoyl)-N—((S)-1-((2S,4R)-4-hydroxy-2-(((S)-1-(4-(4-methylthiazol-5-yl)phenyl)ethyl)carbamoyl)pyrrolidin-1-yl)-3,3-dimethyl-1-oxobutan-2-yl)piperidine-3-carboxamide]: in assay [1] (Homo sapiens, 120 h), the GI50 is 6 nM. Moreover, on HiBiT-tagged BCL-xL, the DC50 was more than 1670 nM.

These data come from patent US20240376094A2, “SELECTIVE BCL-XL PROTAC COMPOUNDS AND METHODS OF USE” (Les Laboratoires Servier, priority 2021, published 2024).
